Data: the NIST ThermoML archive (doi:10.1021/je700072a)

Legend:
[1] = molar heat capacity at constant pressure; settings: 101.33 kPa, Crystal
[2] = Crystal; visual observation

NC[C@H]1CC[C@H](C(=O)O)CC1 [trans-4-(aminomethyl)cyclohexanecarboxylic acid]
[1]
Settings	molar heat capacity at constant pressure [J/K/mol]
82.12 K	74.7
86.25 K	76.89
90.28 K	79.76
94.31 K	82.4
98.35 K	85
102.41 K	87.81
106.49 K	90.49
110.6 K	93.05
114.62 K	95.54
118.68 K	98.24
122.78 K	100.67
126.81 K	103.29
130.9 K	105.64
135.04 K	107.88
139.12 K	109.84
143.27 K	111.62
147.47 K	113.47
151.62 K	115.25
155.73 K	116.97
159.91 K	118.97
164.15 K	120.5
168.36 K	122.02
172.53 K	123.18
176.78 K	124.4
181.09 K	125.84
185.38 K	127.19
189.63 K	128.43
193.83 K	129.9
198.09 K	130.84
202.43 K	132.24
206.76 K	133.38
211.06 K	134.92
215.33 K	136.11
219.57 K	138
223.88 K	139.22
228.26 K	141.19
232.59 K	143.17
236.84 K	145.38
240.99 K	147.84
245.16 K	149.97
249.36 K	153.29
253.5 K	156.23
257.64 K	159.56
261.72 K	162.66
265.9 K	166
270.14 K	168.94
274.32 K	172.81
278.44 K	176.02
282.51 K	180.3
286.62 K	184.12
290.75 K	187.46
294.85 K	190.4
298.94 K	194.15
303.01 K	197.05
307.17 K	200.02
311.37 K	202.88
315.53 K	205.54
319.67 K	209.32
323.79 K	212.66
327.88 K	215.68
331.96 K	219.46
336.09 K	222.93
340.27 K	226.39
344.44 K	229.61
348.6 K	233.13
352.73 K	236.69
356.85 K	239.65
360.96 K	242.26
365.13 K	245.3
369.37 K	248.57
373.63 K	252.41
377.94 K	254.98

Settings	Normal melting temperature [°C]
[2]	249.00
